Series [1] is described as follows: TNS (pKa) assay, apparent LNP pKa. The class given is physicochemical. The settings on record: for pKa (TNS): Example 5 LNP lipid:DOPE:Plant Cholesterol:DMPE-PEG2k 35:16:46.5:2.5, FLUC/EPO 1:1 mRNA, N:P 6:1. On the procedure: (protocol adapted from: A Novel Amino Lipid Series for mRNA Delivery: Improved Endosomal Escape and Sustained Pharmacology and Safety in Non-human Primates, Sabnis, Staci et al., Molecular Therapy, Volume 26, Issue 6, 1509-1519) 20 buffers (10 mM sodium phosphate, 10 mM sodium borate, 10 mM sodium citrate, and 150 mM sodium chloride, in Distilled Water) of unique pH values ranging from 3.0-12.0 were prepared using 1M sodium hydroxide and 1M hydrochloric acid. 3.25 uL of LNPs (0.04 mg/mL mRNA, in PBS) were incubated with 2 μL of TNS reagent (0.3 mM, in DMSO) and 90 μL of buffer for each pH value (described above) in a 96-well black-walled plate. Each pH condition was performed in triplicate wells. The TNS fluorescence was measured using a Biotek Cytation Plate reader at excitation/emission wavelengths of 321/445 nm. The fluorescence values were then plotted and fit using a 4-parameter sigmoid curve. From the fit, the pH value yielding the half-maximal fluorescence was calculated and reported as the apparent LNP pKa value.
For pKa measurement, a […] assay was conducted according to those described in Sabnis et al., Molecular Therapy, 26(6):1509-19), which is incorporated herein by reference in its entirety. Briefly, 20 buffers (10 mM sodium phosphate, 10 mM sodium borate, 10 mM sodium citrate, and 150 mM sodium chloride, in distilled Water) of unique pH values ranging from 3.0-12.0 were prepared using 1M sodium hydroxide and 1M hydrochloric acid. 3.25 μL of a LNP composition (0.04 mg/mL mRNA, in PBS) was incubated with 2 μL of TNS reagent (0.3 mM, in DMSO) and 90 μL of buffer for each pH value (described above) in a 96-well black-walled plate. Each pH condition was performed in triplicate wells. The TNS fluorescence was measured using a Biotek Cytation Plate reader at excitation/emission wavelengths of 321/445 nm. The fluorescence values were then plotted and fit using a 4-parameter sigmoid curve. From the fit, the pH value yielding the half-maximal fluorescence was calculated and reported as the apparent LNP pKa value.

In series [2] the test system is Balb/c mice. Kind of series: In-vivo bioluminescent imaging after IV injection of Fluc mRNA LNP. As to conditions: IV; for Bioluminescence (IV) Liver / Bioluminescence (IV) Lung / Bioluminescence (IV) Spleen / Bioluminescence (IV) Whole Body / Spleen: Liver Ratio: Example 5 LNP (DOPE 35:16:46.5:2.5), 5 μg FLUC + 5 μg EPO; for Bioluminescence (IV) Liver / Bioluminescence (IV) Lung / Bioluminescence (IV) Spleen / Bioluminescence (IV) Whole Body / Bioluminescence Liver / Bioluminescence Lung / Bioluminescence Spleen: 4-6 hours post-dose; for Spleen: Liver Ratio: ratio of bioluminescence; for Bioluminescence Liver / Bioluminescence Lung / Bioluminescence Spleen: 5 ug Fluc+5 ug EPO mRNA. On the procedure: (§1) 8-9 week old female Balb/c mice are utilized for bioluminescence-based ionizable lipid screening efforts. Mice are obtained from Jackson Laboratories (JAX Stock: 000651) and allowed to acclimate for one week prior to manipulations. Animals are placed under a heat lamp for a few minutes before introducing them to a restraining chamber. The tail is wiped with alcohol pads (Fisher Scientific) and 100 μL of a lipid nanoparticle composition descrbed above containing 10 ug total mRNA (5 ug Fluc+5 ug EPO) is injected intravenously using a 29 G insulin syringe (Covidien). Any resulting bleeding is stemmed using a sterile gauze pad (Fisher Scientific) and animals are placed back into their home cage. 4-6 hours post-dose, animals are injected with 200 μL of 15 mg/mL D-Luciferin (GoldBio) and placed in an isoflurane induction chamber set to deliver 2.5% isoflurane delivered at an oxygen flow rate of 1-2 liters per min. After 5 minutes of isoflurane exposure, mice are placed in set nose cones inside the IVIS Lumina LT imager (PerkinElmer). LivingImage software is utilized for imaging. Whole body bio-luminescence is captured at auto-exposure after which animals are removed from the IVIS and placed into a CO2 chamber for euthanasia. Cardiac puncture is performed on each animal after placing it in dorsal recumbency, and blood collection is performed using a 25 G insulin syringe (BD). Blood is collected in Lithium-Heparin coated tubes (Fisher Scientific) and immediately placed on ice. Once all blood samples are collected, tubes are spun at 2000 G for 10 minutes using a tabletop centrifuge and plasma is aliquoted into individual Eppendorf tubes (Fisher Scientific) and stored at −80 C for subsequent EPO quantification. EPO levels in plasma are determined using EPO MSD kit (Meso Scale Diagnostics).
(§2) 8-9 week old female Balb/c mice were utilized for bioluminescence-based ionizable lipid screening efforts. Mice were obtained from Jackson Laboratories (JAX Stock: 000651) and allowed to acclimate for one week prior to manipulations. Animals were placed under a heat lamp for a few minutes before introducing them to a restraining chamber. The tail was wiped with alcohol pads (Fisher Scientific) and, for each LNP composition descrbed above, 100 μL of a lipid nanoparticle composition descrbed above containing 10 μg total mRNA (5 μg Fluc+5 μg EPO, 5 μg Fluc+5 μg Cre, or 5 μg EGFP) was injected intravenously using a 29 G insulin syringe (Covidien).
(§3) 4-6 hours post-dose, animals were injected with 200 μL of 15 mg/mL D-Luciferin (GoldBio), and placed in set nose cones inside the IVIS Lumina LT imager (PerkinElmer). LivingImage software was utilized for imaging. Whole body bio-luminescence was captured at auto-exposure after which animals are removed from the IVIS and placed into a CO2 chamber for euthanasia. Cardiac puncture was performed on each animal after placing it in dorsal recumbency, and blood collection was performed using a 25 G insulin syringe (BD). Once all blood samples were collected, tubes are spun at 2000 G for 10 minutes using a tabletop centrifuge and plasma was aliquoted into individual Eppendorf tubes (Fisher Scientific) and stored at −80° C. for subsequent EPO quantification. EPO levels in plasma were determined using EPO MSD kit (Meso Scale Diagnostics).

Series [3] has as its system Balb/c mice. Nature of the series: EPO levels in plasma by EPO MSD kit after IV injection of EPO mRNA LNP. The class given is in vivo. On the procedure:
as §1, §2, §3

Where [4] appears, read: Example 5 LNP (DOPE 35:16:46.5:2.5), 5 μg FLUC + 5 μg EPO.
Where [5] appears, read: LNP lipid:DOPE:Plant Chol.:DMPE-PEG2k 35:16:46.5:2.5 (Table 1).
Where [6] appears, read: LNP lipid:DSPC:Plant Chol.:DMPE-PEG2k 50:10:38.5:1.5.

Turning to `CCCCCCCCCCCOC(=O)CCCCCN(CCCCCCCC(=O)OC(CCCCCCCC)CCCCCCCC)CCNC(=O)CCCC(=O)NCCN(CCCCCCCC(=O)OC(CCCCCCCC)CCCCCCCC)CCCCCC(=O)OCCCCCCCCCCC` [Compound 2273, 1-octylnonyl 8-[2-[[5-[2-[[8-(1-octylnonoxy)-8-oxo-octyl]-(6-oxo-6-undecoxy-hexyl)amino]ethylamino]-5-oxo-pentanoyl]amino]ethyl-(6-oxo-6-undecoxyhexyl)amino]octanoate], in series [1], the “pKa (TNS)” value was found to be 6.57. For the same compound, in the series with Balb/c mice [2], the “Bioluminescence (IV) Liver” value was 7.6E+06, the “Bioluminescence (IV) Lung” value amounted to 1.0E+04, the “Bioluminescence (IV) Spleen” value is on record as 5.7E+05 and the “Bioluminescence (IV) Whole Body” value was 4.2E+07. Further, in the series on Balb/c mice [2], the “Spleen: Liver Ratio” value stood at 0.080. Also, the hEPO in the series on Balb/c mice [3] (setting [4]) turned out to be 8.5E+05.

The pKa is the negative logarithm of the acid dissociation constant. Consider `CCCCCCCCCCCOC(=O)CCCCCN(CCCCCCCC(=O)OC(CCCCCCCC)CCCCCCCC)CCNC(=O)CCC(=O)NCCN(CCCCCCCC(=O)OC(CCCCCCCC)CCCCCCCC)CCCCCC(=O)OCCCCCCCCCCC` [Compound 2221, 1-octylnonyl 8-[2-[[4-[2-[[8-(1-octylnonoxy)-8-oxo-octyl]-(6-oxo-6-undecoxy-hexyl)amino]ethylamino]-4-oxo-butanoyl]amino]ethyl-(6-oxo-6-undecoxy-hexyl)amino]octanoate], for which the “pKa (TNS)” value in series [1] is 6.36. For the same compound, in series [1] (LNP ionizable lipid:DOPE:Plant Chol.:DMPE-PEG2k 35:16:46.5:2.5 (Table 1)), the pKa is 6.36. Also, the pKa in series [1] (LNP ionizable lipid:DSPC:Plant Chol.:DMPE-PEG2k 50:10:38.5:1.5) was found to be 6.29. Besides, in the series on Balb/c mice [2], the “Bioluminescence (IV) Liver” value is listed as 3.0E+06, the “Bioluminescence (IV) Lung” value stood at 1.9E+03, the “Bioluminescence (IV) Spleen” value is recorded as 2.7E+05 and the “Bioluminescence (IV) Whole Body” value amounted to 2.2E+07. Also, the “Spleen: Liver Ratio” value in the series with Balb/c mice [2] is 0.082. Further, in the series on Balb/c mice [2] (setting [5]), the “Bioluminescence Liver” value was determined as 3.05E+06, the “Bioluminescence Lung” value came out at 1.88E+03 and the “Bioluminescence Spleen” value came out at 2.68E+05. For the same compound, in the series on Balb/c mice [2] (setting [6]), the “Bioluminescence Liver” value came to 2.94E+06, the “Bioluminescence Lung” value is recorded as 5.09E+03 and the “Bioluminescence Spleen” value worked out at 1.23E+06. In addition, in the series on Balb/c mice [3] (setting [4]), the hEPO came to 4.7E+05. The compound also registered a hEPO in the series with Balb/c mice [3] (LNP lipid:DOPE:Plant Chol.:DMPE-PEG2k 35:16:46.5:2.5 (Table 1), 5 ug Fluc+5 ug EPO mRNA) of 4.71E+05. In the series with Balb/c mice [3] (LNP lipid:DSPC:Plant Chol.:DMPE-PEG2k 50:10:38.5:1.5, 5 ug Fluc+5 ug EPO mRNA), this compound returned a hEPO of 4.46E+05.

These data come from patent US20250051263A1, “NOVEL IONIZABLE LIPIDS AND LIPID NANOPARTICLES AND METHODS OF USING THE SAME” (Sail Biomedicines, Inc., priority 2021, published 2025).
